Source: patent US20060148679A1, “Glycosolated enkephalin agents” (priority 2003, published 2006)

Tested on: male ICR mice
Assay: 55° C. tail flick test for antinociception
Assay type: in vivo
Method: The mouse anti-nociception tests were conducted with male ICR mice weighing 25-35 grams using the 55° C. tail flick test. A baseline latency was taken for each mouse. Then the mice were injected with drug and tested for antinociception at various times post-injection. A ten second cut off point was used to avoid tissue damage. The percent of antinociception was calculated as ((Test latency-Control Latency)/(10-Control Latency))×100. The majority of the drugs were tested at varying dosages.
Note the in the nomenclature used in Table 2, the D-threonine residues are indicated at “t,” the “L-Ser” indicate the isomer of serine and not a second leucine, and the sugars are indicated in parenthesis at their site of attachment. The molecules have been tested for anti-nociception in the […] animal model using the standard tail flick assay. The molecules were tested for binding to the opioid receptors and for analgesic effect delivered either to the brain (ICV) or to the bloodstream (IV). Table 2 is appended to the end of this specification.

CN1CC[C@]23c4c5ccc(O)c4O[C@H]2[C@@H](O)C=C[C@H]3[C@H]1C5 [Morphine]
IV (Mouse) (delivered to the bloodstream (i.v.)): 6.3 µmol/kg | ICV (Mouse) IC50 (delivered to the brain (i.c.v.)): 2.7 nmol
